Assay results taken from ChEMBL document CHEMBL1122054, “Lysosomotropic agents. 4. Carbobenzoxyglycylphenylalanyl, a new protease-sensitive masking group for introduction into cells” (J Med Chem, 1982).
Where “and” joins values, the source holds several entries; their conditions need not be identical. Equal entries are not always repeated. Where a SMILES comes first, the peptide text is derived from it. The star is where a group is joined. Cbz = O=C(OCc1ccccc1)*

How the values were obtained:
Mus musculus [1] = organism: Mus musculus; test: Toxicity toward P-815 Mastocytoma cells after 5 hr was determined as percent of [51Cr]- release from labeled cells as a measure of cell death. at a concentration of 0.281 mM. (expt IV); assay type: functional
Mus musculus [2] = organism: Mus musculus; test: Cytotoxicity was determined against mouse peritoneal macrophages (MPM) and the percent of LDH released after 24 hr was determined as a measure of cell death at a concentration of 0.375 mM (expt I); assay type: functional
[3] = Compound in absence of MPM cell homogenate at pH 3 to isolate compound 4 (ng); assay type: ADME, cell-based
[4] = Compound treated with MPM cell homogenate at pH 7 to isolate compound 4 (ng); assay type: ADME, cell-based
MPM [5] = test: Compound in presence of MPM cells and in absence of inactivator at pH 8 to isolate compound 4 (ng); assay type: cell-based
[6] = Compound in absence of MPM cell homogenate at pH 4.5 to isolate compound 4 (ng); assay type: ADME, cell-based
MPM [7] = test: Compound along with 4 mM pepstatin in presence of MPM cells at pH 3 to isolate compound 4 (ng); assay type: cell-based
MPM [8] = test: Compound (steam-treated 10 min) in presence of MPM cells at pH 3 to isolate compound 4 (ng); No data; assay type: cell-based
MPM [9] = test: Compound along with 10 uM HgCl2 in presence of MPM cells at pH 3 to isolate compound 4 (ng); assay type: cell-based
[10] = Compound treated with MPM cell homogenate at pH 3 to isolate compound 4 (ng); assay type: ADME, cell-based
MPM [11] = test: Compound along with 3 mM leupeptin in presence of MPM cells at pH 3 to isolate compound 4 (ng); assay type: cell-based
Mus musculus [12] = organism: Mus musculus; test: Cytotoxicity was determined against mouse peritoneal macrophages (MPM) and the percent of LDH released after 24 hr was determined as a measure of cell death at a concentration of 0.375 mM (expt II); assay type: functional
[13] = Compound in absence of MPM cell homogenate at pH 7 to isolate compound 4 (ng); assay type: ADME, cell-based
[14] = Compound treated with MPM cell homogenate at pH 3.5 to isolate compound 4 (ng); assay type: ADME, cell-based
[15] = Compound treated in absence of MPM cell homogenate at pH 4.5 to isolate compound 4 (ng); assay type: ADME, cell-based
[16] = Compound treated with MPM cell homogenate at pH 7.5 to isolate compound 4 (ng); assay type: ADME, cell-based
MPM [17] = test: Compound in absence of MPM cells and in absence of inactivator at pH 8 to isolate compound 4 (ng); assay type: cell-based
[18] = Compound treated with MPM cell homogenate at pH 6 to isolate compound 4 (ng); assay type: ADME, cell-based
[19] = Compound treated with MPM cell homogenate at pH 6.5 to isolate compound 4 (ng); assay type: ADME, cell-based
[20] = Compound treated with MPM cell homogenate at pH 8 to isolate compound 4 (ng); assay type: ADME, cell-based
Mus musculus [21] = organism: Mus musculus; test: Toxicity toward P-815 Mastocytoma cells after 5 hr was determined as percent of [51Cr]- release from labeled cells as a measure of cell death. at a concentration of 0.331 mM. (expt III); assay type: functional
[22] = Compound treated with MPM cell homogenate at pH 5.5 to isolate compound 4 (ng); assay type: ADME, cell-based
MPM [23] = test: Compound in presence of MPM cells and in absence of inactivator at pH 3 to isolate compound 4 (ng); assay type: cell-based
[24] = Compound treated with MPM cell homogenate at pH 5 to isolate compound 4 (ng); assay type: ADME, cell-based
Mus musculus [25] = organism: Mus musculus; test: Cytotoxicity was determined for the compound against mouse peritoneal macrophages (MPM) at a concentration of 0.165 mM.; assay type: functional
Mus musculus [26] = organism: Mus musculus; test: Toxicity was evaluated for the compound at a concentration of 0.331 mM against […] Mastocytoma.; assay type: functional
[27] = Compound treated with MPM cell homogenate at pH 4.5 to isolate compound 4 (ng); assay type: ADME, cell-based
[28] = Compound treated with MPM cell homogenate at pH 4 to isolate compound 4 (ng); assay type: ADME, cell-based
Mus musculus [29] = organism: Mus musculus; test: Appearance of mouse peritoneal macrophages after 3h of treatment with compound at a concentration of 0.375 mM; vacuoles, rounded; assay type: functional, organism-based

O=C(CNC(=O)OCc1ccccc1)N[C@@H](Cc1ccccc1)C(=O)O (Cbz-Gly-Phe-OH)
Cr release (Mus musculus [1]): 16%

CCCCCCCCCCCCN(CC(F)(F)F)C(=O)[C@@H](Cc1ccccc1)NC(=O)CNC(=O)OCc1ccccc1
LDH release (Mus musculus [2]): 73% | Activity [3]: 30 | Activity [4]: 34 | Activity (MPM [5]): 24 | Activity [6]: 36 | Activity (MPM [7]): 27 | Activity (MPM [8]): 0 | Activity (MPM [9]): 28 | Activity [10]: 92 | Activity (MPM [11]): 23 | LDH release (Mus musculus [12]): 61% | Activity [13]: 20 | Activity [14]: 79 | Activity [15]: < 14 | Activity [16]: 52 | Activity (MPM [17]): 13 | Activity [18]: 54 | Activity [19]: 28 | Activity [20]: 104 | Cr release (Mus musculus [21]): 22% | Activity [22]: 22 | Activity (MPM [23]): 53 | Activity [24]: 30 | Toxicity (Mus musculus [25]): 100 µg/mL | Toxicity (Mus musculus [26]): 200 µg/mL | Activity [27]: 92 and 36 | Activity [28]: 49 | Activity (Mus musculus [29]): vacuoles, rounded
